Measured values published in patent publication US20170095467A1, “ENCAPSULATION OF ISOQUINOLINE ALKALOIDS” (Rhizofeed, LLC, priority 2015, published 2017).

Key:
[1] = Heat degradation of alkaloids in crude extract / extraction with heat; assay type: physicochemical
Description: Two preliminary studies involving heat were conducted. In one study, the raw bloodroot powder was placed on a heating element for 24 hours while the alkaloid was extracted. […] In a second study, a crude extract of alkaloids was placed on a heating element at 67° C. to test for degradation.

[2] = Photosensitivity of sanguinarine and chelerythrine in crude rhizome extract under short-wave UV light (HPLC); assay type: physicochemical
Description: 2 mL of each sample was then collected. All dilutions were filtered through 0.22 um syringe filter (Restek) and were stored in a dark environment held at −4° C. Mobile phases were prepared using 40% acetonitrile, 59% distilled water, and 1% acetic acid. The flow rate was 1.0000 mL/minute, and a pressure of approximately 2161.06 psi was maintained. UV visible spectroscopy was used to determine the optimum wavelength of detection, and detection was carried out at 330 nm. Preliminary studies determined that isoquinoline alkaloids are […] under UV light. In a purified state, it has been established that Sanguinarine undergoes photochemical conversion to oxysanguinarine. […] As depicted in Table 7 and FIG. 5, exposure to light or UV radiation over any period of time has a detrimental effect on the encapsulation yield. According to certain embodiments, exposure to light and UV radiation can be minimized by storing the alkaloids in dark conditions until the encapsulation process is complete or the finished product is used.

[3] = Encapsulate degradation by UV light; assay type: physicochemical
From the text: (§1) The optimized encapsulation method disclosed herein was employed to produce alkaloid loaded inulin beads. These beads were subjected to both heat and light to determine the protective properties conferred by the microencapsulation process.
To determine the light protection provided by the microencapsulation process, 1 g of inulin beads was exposed to a UV source (115V Arthur H. Thomas Co. Lamp).

[4] = Encapsulate degradation by heat (oven / pelletization-like conditions); assay type: physicochemical; conditions: 24 h
Description: as §1
To determine the protection the microencapsulation process provides against heat, 1 g of inulin beads was placed in a Fischer Scientific model 605G Isotemp Oven for 24 hours at 96° C. A comparative example of sanguinarine standard that was not encapsulated was also placed in the oven.
A second study was also performed to understand the effect pelletization could have on the microcapsules. In the second study, 1 g of inulin beads was placed in a loosely covered beaker and subjected to 121° C. heat and 16 psi conditions for 20 minutes. These values are much higher in magnitude and duration than will be endured in the pelletization process for animal feed. As depicted in Table 10, the microcapsules decreased degradation by a factor of 1.62.

rats = conditions: rat, in vivo; cited from earlier work
[5] = Crude Extract Exposed to Heat (24 Hours)
[6] = Standard Extraction (No Heat or Light Exposure)
[7] = Crude Extract Exposed to UV Light (24 Hours)
[8] = Crude Extract Exposed to UV Light (48 Hours)
[9] = Crude Extract Exposed to UV Light (72 Hours)
[10] = Crude Extract Exposed to UV Light (144 Hours)

Structure (SMILES)	Percentage of alkaloid in Extract [1, 5]	Percentage of alkaloid in Extract ([1]; Extracted with Heat (24 Hours))	Percentage of alkaloid in Extract [1, 6]	Percentage of alkaloid in Extract [2, 7]	Percentage of alkaloid in Extract [2, 8]	Percentage of alkaloid in Extract [2, 9]	Percentage of alkaloid in Extract [2, 10]	Percentage of alkaloid in Extract [2, 6]	Percent Degradation [3]	Post-Exposure Alkaloid conc. [3]	Pre-exposure Alkaloid conc. [3]	Percent Degradation ([4]; 96° C.)	Post-Exposure Alkaloid concentration ([4]; 96° C.)	Pre-exposure Alkaloid concentration ([4]; 96° C.)	Percent Degradation ([4]; 121° C., 16 psi, Sang. Only)	Post-Exposure Alkaloid concentration ([4]; 121° C., 16 psi, Sang. Only)	Pre-exposure Alkaloid concentration ([4]; 121° C., 16 psi, Sang. Only)	LD50 (rats)
COc1ccc2c(c[n+](C)c3c4cc5c(cc4ccc23)OCO5)c1OC [Chelerythrine, chelerythrine]	1.81%	2.43%	2.95%	1.50%	1.46%	1.45%	1.30%	2.95%										
C[n+]1cc2c3c(ccc2c2ccc4cc5c(cc4c21)OCO5)OCO3 [Standard, sanguinarine chloride]									49.80%	0.154 mg/mL	0.307 mg/mL	25.40%	0.229 mg/mL	0.307 mg/mL	63.30%	.07306 (Sang mg/mL	.2002 (Sang. mg/mL	
C[n+]1cc2c3c(ccc2c2ccc4cc5c(cc4c21)OCO5)OCO3 [Sanguinarine, sanguinarine]	4.28%	3.41%	5.21%	2.61%	2.41%	2.35%	1.26%	5.21%										1658 mg/kg
